These results are taken from patent EP0523356B1, “Burst-test” (Orpegen Medizinisch-Molekularbiologische …, priority 1991, dated 1993).

The test system of this assay is Granulozyten. The assay can be described thus: Oxidative burst test in heparinised whole blood (dihydrorhodamine 123, flow cytometry). Type of assay: cell-based, menschlichen. To be noted: Erwartungswerte, 10 + 10 Minuten Inkubation at 37°C, heparinised whole blood 100 µl. As to the method: Frisch entnommenes, heparinisiertes Vollblut wird gemixt (Vortex) und auf dem Boden eines 5 ml-Röhrchens aliquotiert, wobei pro Ansatz 100 µl verwendet werden. Durch EDTA oder Citrat stabilisiertes Vollblut ist für das Verfahren nicht sonderlich geeignet. Die Blutproben werden vor der Zugabe der Bakterien ca. 15 Minuten im Eiswasserbad inkubiert, um auf 0°C abgekühlt zu sein.
Die vorgekühlten E.coli-Bakterien (1 x 10^9 pro ml) werden gut gemixt (Vortex) und 20 µl pro Ansatz zum Vollblut pipettiert ("high control", Röhrchen 1). Gegebenenfalls können 20 µl N-Formyl-Met-Leu-Phe-Gebrauchslösung als "low control" in ein weiteres Röhrchen (Röhrchen 2) gegeben werden (Endkonzentration 10^-6 mol/l). 20 µl Waschlösung (phosphatgepufferte Salzlösung ohne Calcium^2+ und Magnesium^2+ mit 0,02 % EDTA) werden als Negativkontrolle in ein drittes Röhrchen (Röhrchen 3) gegeben.
Alle Röhrchen werden nochmals gemixt (Vortex) und 10 Minuten lang bei 37°C im Wasserbad unter starkem Schütteln inkubiert (bei einer kinetischen Messung können auch längere Inkubationszeiten erforderlich sein).
Nach 10 Minuten erfolgt die Zugabe von 20 µl frisch angesetzter Substratlösung und Mischen (Vortex) (Endkonzentration 0,2 µg Dihydrorhodamin 123 auf 100 µl Körperflüssigkeit). […]
Background: A flow cytometer gives signals particle by particle.

Take `CSCC[C@H](NC=O)C(=O)N[C@@H](CC(C)C)C(=O)N[C@@H](Cc1ccccc1)C(=O)O` [N-Formyl-Met-Leu-Phe]: the “mittlere Fluoreszenzintensität (4 Dekaden, 1024 Kanäle)” value (green fluorescence (FL1) of the oxidising cells, stimulant: 20 µl E.coli 1 x 10^9 pro ml or N-Formyl-Met-Leu-Phe Endkonzentration 10^-6 mol/l) is 10-100. Moreover, the “% oxidierende Granulozyten” value (stimulant: 20 µl E.coli 1 x 10^9 pro ml or N-Formyl-Met-Leu-Phe Endkonzentration 10^-6 mol/l6 mol/l) is given as 1-5%.
